The results in this text go back to patent US20220241260A9, “Pharmaceutical Compositions Of Metabotropic Glutamate 5 Receptor (MGLU5) Antagonists” (F. HOFFMANN-LA ROCHE AG, priority 2010, published 2022).

The data set can be described thus: BCS classification. Type of data set: physicochemical. As to conditions: because of pH dependent solubility in physiological range.

For the molecule `Cc1nc(C#Cc2ccnc(Cl)c2)c(C)n1-c1ccc(F)cc1` [2-Chloro-4-[1-(4-fluoro-phenyl)-2,5-dimethyl-1H-imidazol-4-ylethynyl]-pyridine], the BCS class result is “BCS class 2”.
